Columns and labels:
ethanolic narcosis [1] = assay: Ethanolic narcosis period (ethanol 3.5 g./kg. i.p.); format: in vivo, Wistar rats; settings: 1 h before ethanol 3.5 g./kg. i.p., n=10, control = 100 ± 6.5
Procedure: The effect of the compounds according to the invention on ethanolic narcosis was tested on male and female Wistar rats, each weighing 160 to 180 g., in groups of 10. The animals were fasted for 16 hours prior to treatment and were then administered various doses of the test compound, orally. One hour after treatment the rats were treated with 3.5 g./kg. of ethanol intraperitoneally (i.p.). The narcosis period of the animals was measured from the elapse of the righting reflex until a spontaneous correction of the body position. The average of the narcosis period and the percentage difference from the control were calculated. […] The control group was treated with a placebo and a […]. dose of ethanol.

[2] = test system: hyperactivity induced by ethanol; assay: Hyperactivity induced by ethanol (locomotor activity, Animex BSE motimeter); format: in vivo, BALB/c mice; settings: n=15
Procedure: The effect of the compounds on hyperactivity induced by ethanol was tested on male and female BALB/c mice, each weighing 16 to 18 g. The test materials were administered to groups of 15 orally, one hour before administering the placebo orally or a 2 g./kg. dose of ethanol intraperitoneally. The control animals were treated with the placebo. The locomotor activity of the animals was measured for two hours, using an Animex BSE motimeter.

ethanolic ataxia = assay: Ethanolic ataxia and muscular tension on rotating rod; format: in vivo, BALB/c mice; settings: n=10
Procedure: The effect of the compounds according to the invention on ethanolic ataxia and the change of muscular tension was tested on rotating rods. Trained and selected male and female BALB/c mice weighing 16 to 18 g. each were administered a 40 mg./kg. oral dose of the test compounds one hour before intraperitoneal administration of 2.5 g./kg. of ethanol. The time until the animals could remain on the rod was measured 60, 90 and 120 minutes after the ethanolic treatment. This time was 120 minutes for the animals with intact coordination. The results are summarized in Table 3, where the percentage of the animals remaining on the rotating rod is indicated.

[3] = test system: catalepsy induced by tetrabenazine; assay: Inhibition of catalepsy induced by tetrabenazine; format: in vivo, Hann.-Wistar rats; settings: Rattus norvegicus, po; rats; orally, 60 minutes before tetrabenazine 30 mg./kg. i.p.; probit analysis
Procedure: (§1) To determine the antidepressive activity of the compounds provided by the invention the inhibition of catalepsy induced by tetrabenazine and the inversion of hypothermia induced by reserpin were measured. The anticholinergic activity was tested by determining the inhibition of tremor induced by oxotremorin. As a reference compound imipramine was used.

[4] = test system: hypothermia induced by reserpin; assay: Inversion of reserpin-hypothermia (antireserpin activity); format: in vivo, male CFLP mice; settings: Mus musculus, po; mice; orally, 16 hours after reserpin 5 mg./kg. i.p.; dose increasing body temperature by 50%
Procedure: as §1
The inversion of reserpin-hypothermia was tested on male CFLP mice, weighing 18 to 22 g. each and treated with a 5 mg./kg. dose of reserpin intraperitoneally. 16 hours after treatment the animals were administered various doses of the test compounds, orally. The rectal temperature of the animals was measured before the reserpin treatment, 16 hours after treatment and 2 hours after the administration of the test compounds.

[5] = test system: tremor induced by oxotremorin; assay: Anticholinergic activity: inhibition of tremor induced by oxotremorin; format: in vivo, male CFLP mice; settings: mice, oral; for ED50: Mus musculus, oxotremorin 0.5 mg./kg. i.p., read-out: Oxotremorin inh. (ED50); for Oxotremorin inh. (result in words): remark to the printed 160.0 mg./kg.
Procedure: as §1
The anticholinergic activity was tested on male CFLP mice, weighing 18 to 22 g. each, which were treated with a 0.5 mg./kg. dose of oxotremorin (i.p.) and after 60 minutes with various oral doses of the test compounds.

Acute toxicity = settings: rat, in vivo; rats; single 500 mg./kg. oral dose; observed for 14 hours; read-out: Toxicity, dead animals (%)
Procedure: The acute toxicity of the compounds according to the invention was determined on Hann.-Wistar rats of both sexes, weighing 160 to 180 g. each, which had been treated with a single 500 mg./kg. dose of the test compounds, orally. […] In Table 4 the percentage of the dead animals is given.

ethanolic narcosis [6] = settings: known effect of the reference material; cited from earlier work

| SMILES | Ethanolic narcosis period (Control ± S.E. %) (ethanolic narcosis [1]; 10.0 mg./kg. orally) [%] | Ethanolic narcosis period (Control ± S.E. %) (ethanolic narcosis [1]; 40.0 mg./kg. orally) [%] | ED50 [3] [mg/kg] | ED50 [4] [mg/kg] | ED50 [5] [mg/kg] | Oxotremorin inh. (result in words) [5] | mortality at 14 h (Acute toxicity) [%] | other results |
| --- | --- | --- | --- | --- | --- | --- | --- | --- |
| CCN(CC)CCCOc1ccc(C(O)(CC)c2cccc(C(F)(F)F)c2)cc1 (stereo not drawn) [A, 3-trifluoromethyl-4'-[3-(diethylamino)-propoxy]-α-ethyl-benzhydrol] | 52 ± 11.1 | 40 ± 5.0 | – | – | – | – | – | – |
| CCN(CC)CCOc1ccc(C(O)(CC)c2ccc(Cl)cc2)cc1 (stereo not drawn) [B, 4-chloro-4'-[2-(diethylamino)-ethoxy]-α-ethyl-benzhydrol] | 48 ± 9.5 | 39 ± 4.5 | – | – | – | – | – | Locomotor activity (2 hours) ([2]; compound 10.0 mg./kg. orally + ethanol 2000.0 mg./kg. i.p., ethanol + placebo 190 ± 12.2): 110 ± 8.1 percentage of the control; Locomotor activity (2 hours) ([2]; compound 10.0 mg./kg. orally + placebo (no ethanol), placebo control 100 ± 8.1): 110 ± 15.2 percentage of the control; % of the animals remaining on the rod (ethanolic ataxia; compound 40.0 mg./kg. orally + ethanol 2500.0 mg./kg. i.p., 60 minutes, ethanol alone 10): 40%; % of the animals remaining on the rod (ethanolic ataxia; compound 40.0 mg./kg. orally + ethanol 2500.0 mg./kg. i.p., 90 minutes, ethanol alone 40): 70%; % of the animals remaining on the rod (ethanolic ataxia; compound 40.0 mg./kg. orally + ethanol 2500.0 mg./kg. i.p., 120 minutes, ethanol alone 50): 90%; % of the animals remaining on the rod (ethanolic ataxia; compound 40.0 mg./kg. orally, no ethanol, 60 minutes): 100%; % of the animals remaining on the rod (ethanolic ataxia; compound 40.0 mg./kg. orally, no ethanol, 90 minutes): 100%; % of the animals remaining on the rod (ethanolic ataxia; compound 40.0 mg./kg. orally, no ethanol, 120 minutes): 100% |
| CCN(CC)CCOc1ccc(C(O)(CC)c2ccc(C(F)(F)F)cc2)cc1 (stereo not drawn) [C, 4-trifluoromethyl-4'-[2-(diethylamino)-ethoxy]-α-ethyl-benzhydrol] | – | – | 20 | 30 | 160 | ineffective | 0 | – |
| CCN(CC)CCCOc1ccc(C(O)(CC)c2cccc(Cl)c2)cc1 (stereo not drawn) [D, 3-chloro-4'-[3-(diethylamino)-propoxy]-α-ethyl-benzhydrol] | – | – | 18.8 | 17 | 160 | ineffective | 0 | – |
| CN(C)CCCN1c2ccccc2CCc2ccccc21 [Imipramine, reference compound] | – | – | 13.7 | 15 | 50 | – | 80 | – |
| N[C@@H](CS)C(=O)O [L-cysteine, reference compound] | – | – | – | – | – | – | – | Ethanolic narcosis period (Control ± S.E. %) (ethanolic narcosis [1]; 500.0 mg./kg. orally): 63 ± 4.2%; alcoholic narcosis reducing effect (ethanolic narcosis [6]): known to have an alcoholic narcosis reducing effect |

— US4605672A, “Diethylaminoalkoxybenzhydrol derivatives, process for their preparation and pharmaceutical compositions containing them” (Richter Gedeon Vegyeszeti Gyar Rt., priority 1982, dated 1986)
